Laboratory results: patent US12441726B2, “Compounds and uses thereof” (Foghorn Therapeutics Inc., priority 2020, dated 2025)
pIC50: −log10 of the molar value.

What was measured:
BRG-1 = BRG-1 (Homo sapiens, UniProt P51532); experiment: ATPase catalytic activity assay (ADP-Glo), BRG-1; conditions: for Emax: 1 h, read-out: BRG1 Max % Inhibition, ADP-Glo, 30 nM BRG-1, 400 μM ATP
BRM = BRM (Homo sapiens, UniProt P51531); experiment: ATPase catalytic activity assay (ADP-Glo), BRM; conditions: 30 nM BRM, 400 μM ATP; for IC50: BRM ATPase: IC50 (uM)
BRM, sequence (P51531 whole entry): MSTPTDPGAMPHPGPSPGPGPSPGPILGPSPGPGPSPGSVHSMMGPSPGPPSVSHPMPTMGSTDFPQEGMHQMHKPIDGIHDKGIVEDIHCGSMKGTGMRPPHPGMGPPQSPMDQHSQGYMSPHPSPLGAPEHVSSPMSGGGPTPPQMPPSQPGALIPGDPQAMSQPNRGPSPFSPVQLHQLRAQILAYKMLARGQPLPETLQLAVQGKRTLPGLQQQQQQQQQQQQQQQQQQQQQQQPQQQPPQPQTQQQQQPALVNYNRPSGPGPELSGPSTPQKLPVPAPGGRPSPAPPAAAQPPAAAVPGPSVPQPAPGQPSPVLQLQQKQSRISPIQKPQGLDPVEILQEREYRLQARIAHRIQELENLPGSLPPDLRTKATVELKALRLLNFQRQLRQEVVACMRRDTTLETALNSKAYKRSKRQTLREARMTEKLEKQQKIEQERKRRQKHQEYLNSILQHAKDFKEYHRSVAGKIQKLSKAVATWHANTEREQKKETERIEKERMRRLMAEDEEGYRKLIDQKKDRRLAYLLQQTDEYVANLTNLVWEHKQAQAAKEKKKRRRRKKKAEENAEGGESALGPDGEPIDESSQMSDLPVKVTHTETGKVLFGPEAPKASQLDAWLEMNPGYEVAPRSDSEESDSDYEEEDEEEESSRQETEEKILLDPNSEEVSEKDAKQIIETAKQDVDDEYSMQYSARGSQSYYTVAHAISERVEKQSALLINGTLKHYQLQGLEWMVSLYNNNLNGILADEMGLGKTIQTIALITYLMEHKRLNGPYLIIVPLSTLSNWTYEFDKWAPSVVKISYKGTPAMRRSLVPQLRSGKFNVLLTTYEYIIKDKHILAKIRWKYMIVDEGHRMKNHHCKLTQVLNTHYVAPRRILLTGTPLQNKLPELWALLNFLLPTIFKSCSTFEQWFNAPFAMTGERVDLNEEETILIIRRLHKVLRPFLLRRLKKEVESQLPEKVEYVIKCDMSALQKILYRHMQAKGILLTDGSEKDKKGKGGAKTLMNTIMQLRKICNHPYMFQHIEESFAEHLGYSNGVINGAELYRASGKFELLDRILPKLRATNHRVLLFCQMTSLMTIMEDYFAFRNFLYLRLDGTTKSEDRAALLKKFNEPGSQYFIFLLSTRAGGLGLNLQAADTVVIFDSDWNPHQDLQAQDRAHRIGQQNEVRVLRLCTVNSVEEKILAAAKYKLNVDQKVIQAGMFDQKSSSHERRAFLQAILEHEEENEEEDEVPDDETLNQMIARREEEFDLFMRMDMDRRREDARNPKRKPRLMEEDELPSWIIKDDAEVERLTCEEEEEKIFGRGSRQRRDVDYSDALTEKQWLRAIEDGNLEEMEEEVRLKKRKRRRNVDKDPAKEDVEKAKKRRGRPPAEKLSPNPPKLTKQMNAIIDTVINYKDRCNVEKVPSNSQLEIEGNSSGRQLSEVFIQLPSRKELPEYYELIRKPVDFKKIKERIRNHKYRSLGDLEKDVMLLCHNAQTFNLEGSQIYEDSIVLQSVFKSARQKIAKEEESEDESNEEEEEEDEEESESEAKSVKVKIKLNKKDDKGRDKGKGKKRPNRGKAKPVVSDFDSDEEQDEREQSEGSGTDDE

BRG-1, sequence (P51532 whole entry): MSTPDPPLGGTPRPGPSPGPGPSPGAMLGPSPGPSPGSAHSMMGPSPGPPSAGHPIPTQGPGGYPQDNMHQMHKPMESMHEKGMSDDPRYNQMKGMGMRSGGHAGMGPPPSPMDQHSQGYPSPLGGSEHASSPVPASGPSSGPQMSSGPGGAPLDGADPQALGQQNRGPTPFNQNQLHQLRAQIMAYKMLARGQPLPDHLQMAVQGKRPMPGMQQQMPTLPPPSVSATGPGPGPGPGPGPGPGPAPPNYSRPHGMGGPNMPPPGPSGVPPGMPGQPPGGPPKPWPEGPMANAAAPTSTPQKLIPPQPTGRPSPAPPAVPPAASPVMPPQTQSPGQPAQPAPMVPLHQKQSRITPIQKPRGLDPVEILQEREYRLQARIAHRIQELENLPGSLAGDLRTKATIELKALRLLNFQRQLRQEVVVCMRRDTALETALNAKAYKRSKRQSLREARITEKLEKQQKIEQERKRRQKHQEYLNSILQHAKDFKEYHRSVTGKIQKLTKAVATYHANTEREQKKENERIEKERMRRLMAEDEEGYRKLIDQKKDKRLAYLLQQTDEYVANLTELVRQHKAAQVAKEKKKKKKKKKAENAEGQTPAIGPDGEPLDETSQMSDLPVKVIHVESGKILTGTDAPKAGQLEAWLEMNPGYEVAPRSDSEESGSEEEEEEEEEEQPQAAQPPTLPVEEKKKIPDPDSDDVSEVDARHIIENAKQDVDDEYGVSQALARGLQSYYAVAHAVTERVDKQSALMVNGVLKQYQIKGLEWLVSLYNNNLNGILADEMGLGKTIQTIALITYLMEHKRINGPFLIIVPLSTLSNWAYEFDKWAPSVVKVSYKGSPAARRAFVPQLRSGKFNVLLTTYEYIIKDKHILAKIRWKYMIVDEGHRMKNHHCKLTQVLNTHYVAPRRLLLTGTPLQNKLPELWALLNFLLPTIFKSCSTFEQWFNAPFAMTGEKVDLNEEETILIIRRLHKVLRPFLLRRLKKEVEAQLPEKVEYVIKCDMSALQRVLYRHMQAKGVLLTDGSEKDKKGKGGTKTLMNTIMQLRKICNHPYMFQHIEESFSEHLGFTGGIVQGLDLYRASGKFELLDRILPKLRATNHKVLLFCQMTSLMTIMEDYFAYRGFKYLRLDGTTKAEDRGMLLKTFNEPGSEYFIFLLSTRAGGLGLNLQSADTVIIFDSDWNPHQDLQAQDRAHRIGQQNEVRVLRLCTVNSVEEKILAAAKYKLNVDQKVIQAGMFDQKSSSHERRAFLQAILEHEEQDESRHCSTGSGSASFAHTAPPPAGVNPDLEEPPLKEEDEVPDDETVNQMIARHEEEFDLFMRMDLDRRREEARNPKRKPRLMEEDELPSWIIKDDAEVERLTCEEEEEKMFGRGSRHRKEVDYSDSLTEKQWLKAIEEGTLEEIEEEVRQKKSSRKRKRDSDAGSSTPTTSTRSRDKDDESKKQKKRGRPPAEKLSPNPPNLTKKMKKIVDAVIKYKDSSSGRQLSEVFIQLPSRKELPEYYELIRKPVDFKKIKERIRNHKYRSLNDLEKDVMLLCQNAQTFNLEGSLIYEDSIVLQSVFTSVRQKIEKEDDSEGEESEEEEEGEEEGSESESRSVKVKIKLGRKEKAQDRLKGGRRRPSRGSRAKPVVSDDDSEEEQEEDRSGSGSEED

Structure (SMILES): C[C@@]1(C#N)COCc2ccc(C(=O)NCc3cc(OCc4cccc(N5CCC5)n4)ccn3)cc21 [Compound 34]
- pIC50 (BRG-1): < 6.00
- Emax (BRG-1): 53%
- BRM Max % Inhibition (BRM): 94%
- IC50 (BRM): 0.1 to 0.5 µM

Structure (SMILES): C[C@@]1(C#N)COCc2ccc(C(=O)NCc3cc(OCc4ccccn4)ccn3)cc21 [Compound 36]
- pIC50 (BRG-1): < 6.00
- Emax (BRG-1): 44%
- BRM Max % Inhibition (BRM): 64%
- IC50 (BRM): > 1 µM

Structure (SMILES): COC(=O)c1cccc(C#Cc2ccnc(CNC(=O)c3ccc4c(c3)[C@](C)(C#N)CO4)c2)c1 [Compound 37]
- pIC50 (BRG-1): < 6.00
- Emax (BRG-1): 21%
- BRM Max % Inhibition (BRM): 76%
- IC50 (BRM): > 1 µM

Structure (SMILES): COc1cccc(/C=C/c2ccnc(CNC(=O)c3ccc4c(c3)[C@](C)(C#N)COC4)c2)c1 [Compound 38]
- pIC50 (BRG-1): < 6.00
- Emax (BRG-1): 86%
- BRM Max % Inhibition (BRM): 97%
- IC50 (BRM): < 0.1 µM

Structure (SMILES): COC(=O)c1cccc(C#Cc2ccnc(CNC(=O)c3ccc4c(c3)[C@](C)(C#N)CCN4)c2)c1 [Compound 39]
- pIC50 (BRG-1): < 6.00
- Emax (BRG-1): 28%
- BRM Max % Inhibition (BRM): 75%
- IC50 (BRM): > 1 µM

Structure (SMILES): C[C@@]1(C#N)COCc2ccc(C(=O)NCc3cc(OCc4cccc(N5CCC5)c4)ccn3)cc21 [Compound 40]
- pIC50 (BRG-1): < 6.00
- Emax (BRG-1): 67%
- BRM Max % Inhibition (BRM): 96%
- IC50 (BRM): 0.1 to 0.5 µM

Structure (SMILES): COC[C@H](NC(=O)c1ccc2c(c1)[C@](C)(C#N)COC2)c1cc(/C=C/c2ccccc2)ccn1 [Compound 41]
- pIC50 (BRG-1): < 6.00
- Emax (BRG-1): 55%
- BRM Max % Inhibition (BRM): 85%
- IC50 (BRM): 0.5 to 1 µM

Structure (SMILES): C[C@@]1(C#N)COCc2ccc(C(=O)NCc3cc(N4CCN(c5ccccc5)CC4)ccn3)cc21 [Compound 42]
- pIC50 (BRG-1): 6.00 to 6.30
- Emax (BRG-1): 84%
- BRM Max % Inhibition (BRM): 97%
- IC50 (BRM): 0.1 to 0.5 µM

Structure (SMILES): COC[C@H](NC(=O)c1ccc2c(c1)[C@](C)(C#N)COC2)c1cc(C#Cc2ccccc2)ccn1 [Compound 43]
- pIC50 (BRG-1): < 6.00
- Emax (BRG-1): 34%
- BRM Max % Inhibition (BRM): 68%
- IC50 (BRM): > 1 µM

Structure (SMILES): C[C@@]1(C#N)COCc2ccc(C(=O)NCc3cc(N4CCC(c5ccccc5)C4)ccn3)cc21 (stereo partly drawn) [Compound 44]
- pIC50 (BRG-1): < 6.00
- Emax (BRG-1): 69%
- BRM Max % Inhibition (BRM): 97%
- IC50 (BRM): 0.1 to 0.5 µM

Structure (SMILES): C[C@@]1(C#N)COCc2ccc(C(=O)NCc3cc(OCc4cc(F)c5c(c4)CCO5)ccn3)cc21 [Compound 45]
- pIC50 (BRG-1): 6.00 to 6.30
- Emax (BRG-1): 79%
- BRM Max % Inhibition (BRM): 96%
- IC50 (BRM): < 0.1 µM

Structure (SMILES): C[C@@]1(C#N)COCc2ccc(C(=O)NCc3cc(N4CC(c5ccccc5)C4)cnn3)cc21 [Compound 46]
- pIC50 (BRG-1): < 6.00
- Emax (BRG-1): 29%
- BRM Max % Inhibition (BRM): 78%
- IC50 (BRM): > 1 µM

Structure (SMILES): O=C(NCc1cc(C#Cc2ccccc2)ccn1)c1ccc2c(c1)[C@@](F)(C(F)F)COC2 [Compound 47]
- pIC50 (BRG-1): < 6.00
- Emax (BRG-1): 47%
- BRM Max % Inhibition (BRM): 90%
- IC50 (BRM): 0.1 to 0.5 µM

Structure (SMILES): O=C(NCc1cc(C#Cc2ccccc2)ccn1)c1ccc2c(c1)[C@](F)(C(F)F)COC2 [Compound 48]
- pIC50 (BRG-1): < 6.00
- Emax (BRG-1): 11%
- BRM Max % Inhibition (BRM): 67%
- IC50 (BRM): > 1 µM

Structure (SMILES): C[C@@]1(C#N)COCc2ccc(C(=O)NCc3cc(N4CCc5ccccc5CC4)ccn3)cc21 [Compound 50]
- pIC50 (BRG-1): < 6.00
- Emax (BRG-1): 53%
- BRM Max % Inhibition (BRM): 90%
- IC50 (BRM): 0.1 to 0.5 µM

Structure (SMILES): COc1cc(F)cc2c1CCN(c1ccnc(CNC(=O)c3ccc4c(c3)[C@](C)(C#N)COC4)c1)C2 [Compound 51]
- pIC50 (BRG-1): 6.30 to 7.00
- Emax (BRG-1): 94%
- BRM Max % Inhibition (BRM): 99%
- IC50 (BRM): < 0.1 µM

Structure (SMILES): C[C@@]1(C#N)COCc2ccc(C(=O)NCc3cc(SCc4ccccc4)ccn3)cc21 [Compound 52]
- pIC50 (BRG-1): < 6.00
- Emax (BRG-1): 34%
- BRM Max % Inhibition (BRM): 86%
- IC50 (BRM): 0.1 to 0.5 µM

Structure (SMILES): C[C@@]1(C#N)COCc2ccc(C(=O)NCc3cc(N4Cc5ccncc5C4)ccn3)cc21 [Compound 53]
- pIC50 (BRG-1): < 6.00
- Emax (BRG-1): 48%
- BRM Max % Inhibition (BRM): 88%
- IC50 (BRM): 0.1 to 0.5 µM

Structure (SMILES): C[C@@]1(C#N)COCc2ccc(C(=O)NCc3cc(N4CCC(O)(c5ccccc5)C4)ccn3)cc21 (stereo partly drawn) [Compound 54]
- pIC50 (BRG-1): < 6.00
- Emax (BRG-1): 42%
- BRM Max % Inhibition (BRM): 81%
- IC50 (BRM): 0.1 to 0.5 µM

Structure (SMILES): C[C@@]1(C#N)COCc2ccc(C(=O)NCc3cc(N4CCC[C@H](c5ccccc5)C4)ccn3)cc21 [Compound 55]
- pIC50 (BRG-1): < 6.00
- Emax (BRG-1): 33%
- BRM Max % Inhibition (BRM): 82%
- IC50 (BRM): 0.1 to 0.5 µM

Structure (SMILES): COc1cccc2c1CCN(c1ccnc(CNC(=O)c3ccc4c(c3)[C@](C)(C#N)COC4)c1)C2 [Compound 56]
- pIC50 (BRG-1): 6.30 to 7.00
- Emax (BRG-1): 92%
- BRM Max % Inhibition (BRM): 98%
- IC50 (BRM): < 0.1 µM

Structure (SMILES): C[C@@]1(C#N)COCc2ccc(C(=O)NCc3cc(N4CCC5CCCCC5C4)ccn3)cc21 (stereo partly drawn) [Compound 57]
- pIC50 (BRG-1): < 6.00
- Emax (BRG-1): 37%
- BRM Max % Inhibition (BRM): 85%
- IC50 (BRM): 0.1 to 0.5 µM

Structure (SMILES): COC1(c2ccccc2)CCN(c2ccnc(CNC(=O)c3ccc4c(c3)[C@](C)(C#N)COC4)c2)C1 (stereo partly drawn) [Compound 58]
- pIC50 (BRG-1): 6.00 to 6.30
- Emax (BRG-1): 50%
- BRM Max % Inhibition (BRM): 92%
- IC50 (BRM): 0.1 to 0.5 µM

Structure (SMILES): C[C@@]1(C#N)COCc2ccc(C(=O)NCc3cc(N4CC(n5ccc6ccccc65)C4)ccn3)cc21 [Compound 59]
- pIC50 (BRG-1): 6.00 to 6.30
- Emax (BRG-1): 56%
- BRM Max % Inhibition (BRM): 93%
- IC50 (BRM): 0.1 to 0.5 µM

Structure (SMILES): C[C@@]1(C#N)COCc2ccc(C(=O)NCc3cc(N4CCC(F)(c5ccccc5)C4)ccn3)cc21 (stereo partly drawn) [Compound 60]
- pIC50 (BRG-1): 6.00 to 6.30
- Emax (BRG-1): 75%
- BRM Max % Inhibition (BRM): 93%
- IC50 (BRM): 0.1 to 0.5 µM

Structure (SMILES): C[C@@]1(C#N)COCc2ccc(C(=O)NCc3cc(OCC4CCOCC4)ccn3)cc21 [Compound 61]
- pIC50 (BRG-1): < 6.00
- Emax (BRG-1): 25%
- BRM Max % Inhibition (BRM): 85%
- IC50 (BRM): 0.1 to 0.5 µM

Structure (SMILES): C[C@@]1(C#N)COCc2ccc(C(=O)NCc3cc(C4CCN(c5ccccc5)C4)ccn3)cc21 (stereo partly drawn) [Compound 62]
- pIC50 (BRG-1): < 6.00
- Emax (BRG-1): 42%
- BRM Max % Inhibition (BRM): 90%
- IC50 (BRM): 0.1 to 0.5 µM

Structure (SMILES): C[C@@]1(C#N)COCc2ccc(C(=O)NCc3cc(N4CCc5ccc(C(F)F)cc5C4)ccn3)cc21 [Compound 63]
- pIC50 (BRG-1): 6.00 to 6.30
- Emax (BRG-1): 84%
- BRM Max % Inhibition (BRM): 99%
- IC50 (BRM): < 0.1 µM

Structure (SMILES): C[C@@]1(C#N)COCc2ccc(C(=O)NCc3cc(OCc4ccc(C#N)cc4)ccn3)cc21 [Compound 64]
- pIC50 (BRG-1): < 6.00
- Emax (BRG-1): 36%
- BRM Max % Inhibition (BRM): 87%
- IC50 (BRM): 0.1 to 0.5 µM

Structure (SMILES): C[C@@]1(C#N)COCc2ccc(C(=O)NCc3cc(OCc4cccc(C#N)c4)ccn3)cc21 [Compound 65]
- pIC50 (BRG-1): < 6.00
- Emax (BRG-1): 39%
- BRM Max % Inhibition (BRM): 90%
- IC50 (BRM): 0.1 to 0.5 µM

Structure (SMILES): C[C@@]1(C#N)COCc2ccc(C(=O)NCc3nccc(N4CCc5ccccc5C4)c3F)cc21 [Compound 66]
- pIC50 (BRG-1): 6.00 to 6.30
- Emax (BRG-1): 76%
- BRM Max % Inhibition (BRM): 99%
- IC50 (BRM): 0.1 to 0.5 µM

Structure (SMILES): C[C@@]1(C#N)COCc2ccc(C(=O)NCc3cc(N4CCc5cc(C(F)F)ccc5C4)ccn3)cc21 [Compound 67]
- pIC50 (BRG-1): 6.00 to 6.30
- Emax (BRG-1): 84%
- BRM Max % Inhibition (BRM): 97%
- IC50 (BRM): 0.1 to 0.5 µM

Structure (SMILES): C[C@@]1(C#N)COCc2ccc(C(=O)NCc3nccc(N4Cc5ccccc5C4)c3F)cc21 [Compound 68]
- pIC50 (BRG-1): 6.30 to 7.00
- Emax (BRG-1): 91%
- BRM Max % Inhibition (BRM): 98%
- IC50 (BRM): < 0.1 µM
